Patent publication US11072588B2, “Barbituric acid derivatives comprising cationic and lipophilic groups” (UNIVERSITETET I TROMSØ—NORGES ARKTISKE UNIVERSITET, priority 2017, dated 2021)
Values after ≈ are worked out from the molar mass of the structure shown.

Legend:
[1] = system: human metastatic melanoma (A2058, ATCC CRL-11147) cells; experiment: Anti-cancer activity against A2058 cells; format: cell-based; conditions: A2058, read-out: Anti-cancer IC50
Description: Cytotoxicity of the test compounds was evaluated after 72 hour exposure to human metastatic melanoma (A2058, ATCC CRL-11147) cells.
A2058 cells were grown overnight (2,000 cells/well), and then incubated with the test compounds (range of concentrations) diluted in MEM Earle's supplemented with gentamycin (10 μg/mL), non-essential amino acids (1%), sodium pyruvate (1 mM), L-alanyl-Lglutamine (2 mM), but without FBS (total volume was 100 μl) for […]. Ten μL of CellTiter 96® AQueous One Solution Reagent (Promega, Madison, Wis., USA) was added, and the plates were then further incubated for 1 hour.
Absorbance was measured at 485 nm in a DTX 880 Multimode Detector. Results were calculated as % survival compared to negative (assay media) and positive (Triton X-100; Sigma-Aldrich) controls.

human RBCs = experiment: Determination of haemolytic activity; format: cell-based
Description: Hemolysis was determined using a heparinized fraction (1000 IU/mL) of freshly drawn blood. Blood collected in EDTA containing test tubes (Vacutest®, KIMA, Arzergrande, Italy) was used for determination of the hematocrit (hct). The heparinized blood was washed 3× with pre-warmed PBS and adjusted to a final hct of 4%. Derivatives in DMSO (50 mM) were added to a 96-well polypropylene V-bottom plate (NUNC, Fisher Scientific, Oslo, Norway) and serially diluted. The test concentration range was 500-4 μM with DMSO contents ≤1%. A solution of 1% triton X-100 was used as positive control for 100% hemolysis. As negative control a solution of 1% DMSO in PBS buffer was included. No signs of DMSO toxicity were detected. RBCs (1% v/v final concentration) were added to the well plate and incubated at 37° C. and 800 rpm for 1 h. After centrifugation (5 min, 3000 g), 100 μL of each well were transferred to a 96-well flat bottom plate and absorbance was measured at 545 nm with a microplate reader (VersaMax™, Molecular Devices, Sunnyvale, Calif., USA). The percentage of hemolysis was calculated as the ratio of the absorbance in the derivative-treated and surfactant treated samples, corrected for the PBS background. Three independent experiments were performed and EC50 values are presented as averages.

Structure (SMILES) | IC50 [1] [µg/mL] | RBC toxicity compared to the amine 7(i) (human RBCs)
N=C(N)NCCCCN1C(=O)N(CCCCNC(=N)N)C(=O)C(Cc2ccc3ccccc3c2)(Cc2ccc3ccccc3c2)C1=O [8(iv), 1,1′-(4,4′-(5,5-bis(naphthalen-2-ylmethyl)-2,4,6-trioxodihydropyrimidine-1,3(2H,4H)-diyl)bis(butane-4,1-diyl))-diguanidine] | 8 (≈ 12.6 µM) | –
CC(C)(C)c1ccc(CC2(Cc3ccc(C(C)(C)C)cc3)C(=O)N(CCCCNC(=N)N)C(=O)N(CCCCNC(=N)N)C2=O)cc1 [Compound 8(i), 1,1′-(4,4′-(5,5-bis(4-tert-butylbenzyl)-2,4,6-trioxodihydropyrimidine-1,3(2H,4H)-diyl)bis(butane-4,1-diyl))diguanidine] | 2 (≈ 3.09 µM) | twofold increased RBC toxicity
CC(C)(C)c1ccc(CC2(Cc3ccc(C(C)(C)C)cc3)C(=O)N(CCCCN)C(=O)N(CCCCN)C2=O)cc1 [Compound 7(i), 1,3-bis(4-aminobutyl)-5,5-bis(4-tertbutylbenzyl) pyrimidin-2,4,6(1H,3H,5H)-trione] | 1 (≈ 1.78 µM) | –
NCCCCN1C(=O)N(CCCCN)C(=O)C(Cc2ccc3ccccc3c2)(Cc2ccc3ccccc3c2)C1=O [7(iv), 1,3-bis(4-aminobutyl)-5,5-bis(naphtalen-2-yl-methyl)-pyrimidin-2,4,6(1H,3H,5H)-trione] | 1 (≈ 1.82 µM) | –
N=C(N)NCCCCN1C(=O)N(CCCCNC(=N)N)C(=O)C(Cc2ccc(F)c3ccccc23)(Cc2ccc(F)c3ccccc23)C1=O [8(v), 1,1′-(4,4′-(5,5-bis((4-fluoronaphthalen-1-yl)methyl)-2,4,6-trioxodihydropyrimidine-1,3(2H,4H)-diyl)bis(butane-4,1-diyl))diguanidine] | 8 (≈ 11.9 µM) | –
CC(C)(C)c1cc(CC2(Cc3cc(C(C)(C)C)cc(C(C)(C)C)c3)C(=O)N(CCCCN)C(=O)N(CCCCN)C2=O)cc(C(C)(C)C)c1 [7(iii), 1,3-bis(4-aminobutyl)-5,5-bis(3,5-di-tert-butylbenzyl)-pyrimidin-2,4,6(1H,3H,5H)-trione] | 1 (≈ 1.48 µM) | –
N=C(N)NCCCCN1C(=O)N(CCCCNC(=N)N)C(=O)C(Cc2cc(Br)cc(Br)c2)(Cc2cc(Br)cc(Br)c2)C1=O [8(ii), 1,1′-(4,4′-(5,5-bis(3,5-dibromobenzyl)-2,4,6-trioxodihydropyrimidine-1,3(2H,4H)-diyl)bis(butane-4,1-diyl))diguanidine] | 2 (≈ 2.35 µM) | –
CC(C)(C)c1cc(CC2(Cc3cc(C(C)(C)C)cc(C(C)(C)C)c3)C(=O)N(CCCCNC(=N)N)C(=O)N(CCCCNC(=N)N)C2=O)cc(C(C)(C)C)c1 [8(iii), 1,1′-(4,4′-(5,5-bis(3,5-di-tert-butylbenzyl)-2,4,6-trioxodihydropyrimidine-1,3(2H,4H)-diyl)bis(butane-4,1-diyl))-diguanidine] | 33 (≈ 43.5 µM) | –
NCCCCN1C(=O)N(CCCCN)C(=O)C(Cc2cc(Br)cc(Br)c2)(Cc2cc(Br)cc(Br)c2)C1=O [7(ii)] | 1 (≈ 1.31 µM) | –
NCCCCN1C(=O)N(CCCCN)C(=O)C(Cc2ccc(F)c3ccccc23)(Cc2ccc(F)c3ccccc23)C1=O [7(v), 1,3-bis(4-aminobutyl)-5,5-bis((4-fluoronaphtalen-1-yl)methyl)pyrimidin-2,4,6(1H,3H,5H)-trione] | 1 (≈ 1.7 µM) | –
